According to patent US20260125378A2, “Heterocyclic Compounds” (BeOne Medicines I GmbH, priority 2023, published 2026):

Legend:
[1] = target: T1, Full length DGKα (D21-10BG, SignalChem) (Homo sapiens, UniProt P23743); test: Biochemical DGK IC50 assay (ADP-Glo, lipid micelle substrate), DGKα; conditions: 1 hour preincubation, 1 hour reaction, room temperature
T1 construct: Full length DGKα (D21-10BG, SignalChem); purchased SignalChem D21-10BG
Method: (§1) Enzymatic reactions of DGKζ, DGKα and DGKδ were performed using ADP-Glo assay with lipid micelle substrate. […] Full length DGKα (D21-10BG, SignalChem) and full length DGKδ (D23-10G, SignalChem) were purchased. Lipid micelle was prepared by dissolving DAG (Sigma, 317505-10 MG) and PS (Sigma, P7769-100 MG) with chloroform which was furtherly removed by rotary evaporation. The obtained residue was resuspended in buffer containing 25 mM HEPES pH 7.0, 0.5 mM EDTA and 160 mM Octyl β-D glucopyranoside by vigorous mixing and ultrasonic (IID, Scientz).
(§2) The inhibition activities testing for the compound disclosed herein were carried out at room temperature in assay buffer containing 50 mM HEPES, 10 mM MgCl2, 0.01% BSA, 0.1 mM Na3VO4, 0.005% Tween-20 and 0.01 mM CaCl2). Compounds in DMSO were dispensed into wells of a black 384 well plate (Corning 4514) using D300e digital dispenser (Tecan). […] 3 μL 2× enzyme solution was added to wells. […] After 1 hour reaction, 5 μL ADP-Glo reagent (Promga V9101) was added and incubated for 40 minutes. 10 μL Kinase Detection reagent was added and incubated for 30 minutes. Luminescence was measured on a microplate reader (PHERAstar FSX, BMG labtech). The IC50S are calculated based on inhibition of enzyme activity in the presence of increasing concentrations of compounds.

[2] = target: T2, Full length DGKζ (in-house protein M1-V929) (Homo sapiens, UniProt Q13574); test: Biochemical DGK IC50 assay (ADP-Glo, lipid micelle substrate), DGKζ; conditions: 1 hour preincubation, 1 hour reaction, room temperature
T2 construct: His (N); TEV site (N); made in house; host or cells: Sf9 insect cells (Bac-to-Bac baculovirus)
Method: as §1, §2
Human His-TEV-DGK-zeta-pFastBac1 and human baculovirus samples was generated using the Bac- to -Bac baculovirus expression system (Invitrogen) according to the manufacturer's protocol. The DNA used for expression of DGK-zeta, have SEQ ID Nos: 1. Baculovirus amplification was achieved using infected SF9 cells at 1:2000 virus/cells ratios, and grown for 96 hours at 27° C. post-transfected.
The expression scaled up for each protein was carried out in the […] from CORNING. 4 L of 3×10^6 cells/mL Sf9 cells (Expression System, Invitrogen) grown in SF900™ II SFM insect medium (Expression System) was infected with virus stock at 1:200 virus/cells ratio, and grown for 48 hours at 27° C. post-transfection. The infected cell culture was harvested by centrifugation at 6000 rpm for 15 min 4° C. in a SORVALL LYNX6000 centrifuge. The cell pellets were stored at −80° C.
Full length human DGKζ produced as described above, was purified from Sf9 baculovirus-infected insect cell paste. The cells were lysed using sonication method, and the lysates were clarified by centrifugation.

T2 sequence (Q13574 1-929 isoform Q13574-4): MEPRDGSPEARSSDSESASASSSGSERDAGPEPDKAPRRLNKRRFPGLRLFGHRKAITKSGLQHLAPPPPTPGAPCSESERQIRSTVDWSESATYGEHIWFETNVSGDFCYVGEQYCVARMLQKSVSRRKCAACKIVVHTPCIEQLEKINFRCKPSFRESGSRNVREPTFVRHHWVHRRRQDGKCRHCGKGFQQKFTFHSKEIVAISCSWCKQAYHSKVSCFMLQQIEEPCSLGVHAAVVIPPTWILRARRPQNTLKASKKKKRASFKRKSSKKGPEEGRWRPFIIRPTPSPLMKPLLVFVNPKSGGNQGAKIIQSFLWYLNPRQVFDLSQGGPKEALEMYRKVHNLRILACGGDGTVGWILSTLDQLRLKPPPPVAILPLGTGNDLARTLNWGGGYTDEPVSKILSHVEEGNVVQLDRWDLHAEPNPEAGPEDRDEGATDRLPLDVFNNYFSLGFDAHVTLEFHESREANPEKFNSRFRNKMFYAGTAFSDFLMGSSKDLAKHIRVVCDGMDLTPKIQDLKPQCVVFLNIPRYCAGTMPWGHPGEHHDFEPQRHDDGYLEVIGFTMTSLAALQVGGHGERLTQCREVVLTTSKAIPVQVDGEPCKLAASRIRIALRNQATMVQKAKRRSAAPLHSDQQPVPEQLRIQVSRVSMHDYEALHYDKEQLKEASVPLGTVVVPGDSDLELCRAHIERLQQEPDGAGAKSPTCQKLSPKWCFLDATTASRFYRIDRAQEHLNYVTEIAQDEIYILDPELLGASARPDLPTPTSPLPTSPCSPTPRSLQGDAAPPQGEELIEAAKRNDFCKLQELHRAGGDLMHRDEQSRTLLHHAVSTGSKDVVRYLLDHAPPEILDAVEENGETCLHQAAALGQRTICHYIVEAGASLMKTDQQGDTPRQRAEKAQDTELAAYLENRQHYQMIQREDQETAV
T1 sequence (P23743 whole entry): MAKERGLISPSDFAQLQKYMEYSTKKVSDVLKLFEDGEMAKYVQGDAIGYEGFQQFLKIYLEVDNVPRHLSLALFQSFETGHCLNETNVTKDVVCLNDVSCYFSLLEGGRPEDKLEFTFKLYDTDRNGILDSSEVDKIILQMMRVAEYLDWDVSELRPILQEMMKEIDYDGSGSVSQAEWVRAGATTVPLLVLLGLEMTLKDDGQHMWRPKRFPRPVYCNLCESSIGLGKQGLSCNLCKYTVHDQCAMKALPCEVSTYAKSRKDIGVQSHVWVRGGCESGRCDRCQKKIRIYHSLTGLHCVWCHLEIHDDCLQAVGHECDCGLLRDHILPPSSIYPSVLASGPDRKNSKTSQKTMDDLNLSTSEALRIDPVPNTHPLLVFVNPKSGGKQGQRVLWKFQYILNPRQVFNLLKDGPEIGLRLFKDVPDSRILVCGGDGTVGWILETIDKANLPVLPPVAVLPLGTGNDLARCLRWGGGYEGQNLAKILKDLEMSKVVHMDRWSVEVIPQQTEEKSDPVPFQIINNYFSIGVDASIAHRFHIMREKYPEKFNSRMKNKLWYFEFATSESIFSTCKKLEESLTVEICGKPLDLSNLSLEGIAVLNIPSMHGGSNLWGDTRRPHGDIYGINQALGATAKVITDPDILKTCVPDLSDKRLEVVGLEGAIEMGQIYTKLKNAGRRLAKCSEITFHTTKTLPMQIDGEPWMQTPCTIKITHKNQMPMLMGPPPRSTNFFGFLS

SMILES	IC50 [1] [µM]	IC50 [2] [µM]
CCn1c(CC#N)nc2c(N3C[C@@H](C)N(C(C)c4ccc5ccc(C)nc5c4)C[C@@H]3C)nc(=O)n(C)c21 (stereo partly drawn) [Compound A90, 2-(6-((2S,5R)-2,5-dimethyl-4-(1-(2-methylquinolin-7-yl)ethyl)piperazin-1-yl)-9-ethyl-3-methyl-2-oxo-3,9-dihydro-2H-purin-8-yl)acetonitrile]	> 150	0.213
CCn1c(CC#N)nc2c(N3C[C@@H](C)N(C(C)c4ccc5c(c4)C(C)(C)CO5)C[C@@H]3C)nc(=O)n(C)c21 (stereo partly drawn) [Compound A183, 2-(6-((2S,5R)-4-(1-(3,3-dimethyl-2,3-dihydrobenzofuran-5-yl)ethyl)-2,5-dimethylpiperazin-1-yl)-9-ethyl-3-methyl-2-oxo-3,9-dihydro-2H-purin-8-yl)acetonitrile]	> 150	0.004
CCn1c(CC#N)nc2c(N3C[C@@H](C)N(C(C)c4cc(F)c5c(c4)OC(C)(C)O5)C[C@@H]3C)nc(=O)n(C)c21 (single isomer, unassigned) [Compound A173b]	83.3	0.412
CC(c1ccc2nccnc2c1)N1C[C@H](C)N(c2cc(=O)n(C)c3c2nc(CC#N)n3C)C[C@H]1C (single isomer, unassigned) [Compound A1b]	> 10	2.35
COC(C)c1cc(F)ccc1C(C)N1C[C@H](C)N(c2nc(=O)n(C)c3c2nc(CC#N)n3C)C[C@H]1C (stereo partly drawn) [Compound A28, 2-(6-((2S,5R)-4-(1-(4-fluoro-2-(1-methoxyethyl)phenyl)ethyl)-2,5-dimethylpiperazin-1-yl)-3,9-dimethyl-2-oxo-3,9-dihydro-2H-purin-8-yl)acetonitrile]	96.9	0.003
CCn1c(CC#N)nc2c(N3C[C@@H](C)N(C(C)c4ccc(C)cc4C(F)(F)F)C[C@@H]3C)nc(=O)n(C)c21 (single isomer, unassigned) [Compound A116b]	> 150	0.228
CCn1c(CC#N)nc2c(N3C[C@@H](C)N(C(C)c4ccc5c(=O)cc(C)n(C)c5c4)C[C@@H]3C)nc(=O)n(C)c21 (stereo partly drawn) [Compound A155, 2-(6-((2S,5R)-4-(1-(1,2-dimethyl-4-oxo-1,4-dihydroquinolin-7-yl)ethyl)-2,5-dimethylpiperazin-1-yl)-9-ethyl-3-methyl-2-oxo-3,9-dihydro-2H-purin-8-yl)acetonitrile]	101	1.21
CCn1c(CC#N)nc2c(N3C[C@@H](C)N(C(C)c4ccc5c(c4)OC(C)(C)CO5)C[C@@H]3C)c(F)c(=O)n(C)c21 (stereo partly drawn) [Compound A20, 2-(7-((2S,5R)-4-(1-(3,3-dimethyl-2,3-dihydrobenzo[b][1,4]dioxin-6-yl)ethyl)-2,5-dimethylpiperazin-1-yl)-3-ethyl-6-fluoro-4-methyl-5-oxo-4,5-dihydro-3H-imidazo[4,5-b]pyridin-2-yl)acetonitrile]	93	0.005
CCn1c(CC#N)nc2c(N3C[C@@H](C)N(C(C)c4ccc5c(c4)OC(F)(F)CO5)C[C@@H]3C)nc(=O)n(C)c21 (single isomer, unassigned) [Compound A80a]	65.6	0.007
CC(c1cc2c(cc1F)OCC(C)(C)O2)N1C[C@H](C)N(c2nc(=O)n(C)c3c2nc(CC#N)n3C)C[C@H]1C (stereo partly drawn) [Compound A69, 2-(6-((2S,5R)-4-(1-(7-fluoro-3,3-dimethyl-2,3-dihydrobenzo[b][1,4]dioxin-6-yl)ethyl)-2,5-dimethylpiperazin-1-yl)-3,9-dimethyl-2-oxo-3,4,5,9-tetrahydro-2H-purin-8-yl)acetonitrile]	3.07	0.006
COC[C@H]1CN(C(C)c2ccc(F)cc2C(F)(F)F)[C@H](C)CN1c1nc(=O)n(C)c2c1nc(CC#N)n2C (single isomer, unassigned) [Compound A10b]	> 10	0.014

More lines, now with the values ahead:

IC50 [1] [µM]	IC50 [2] [µM]	SMILES
> 150	4.11	CCn1c(CC#N)nc2c(N3C[C@@H](C)N(C(C)c4ccc5c(c4)C(=O)N(C)C5)C[C@@H]3C)nc(=O)n(C)c21 (stereo partly drawn) [Compound A100, 2-(6-((2S,5R)-2,5-dimethyl-4-(1-(2-methyl-3-oxoisoindolin-5-yl)ethyl)piperazin-1-yl)-9-ethyl-3-methyl-2-oxo-3,9-dihydro-2H-purin-8-yl)acetonitrile]
> 150	0.437	CC(OC(F)F)c1cc(F)ccc1C(C)N1C[C@H](C)N(c2nc(=O)n(C)c3c2nc(CC#N)n3C)C[C@H]1C (single isomer, unassigned) [Compound A29a]
> 150	1.28	CCn1c(CC#N)nc2c(N3C[C@@H](C)N(C(C)c4cc(C(F)(F)F)ccn4)C[C@@H]3C)nc(=O)n(C)c21 (stereo partly drawn) [Compound A120, 2-(6-((2S,5R)-2,5-dimethyl-4-(1-(4-(trifluoromethyl)pyridin-2-yl)ethyl)piperazin-1-yl)-9-ethyl-3-methyl-2-oxo-3,9-dihydro-2H-purin-8-yl)acetonitrile]
0.308	0.015	CC[C@H]1CN(C(C)c2ccc(C(F)(F)F)cc2)[C@H](CC)CN1c1nc(=O)n(C)c2c1nc(CC#N)n2C (single isomer, unassigned) [Compound A149b]
0.666	0.176	CC(c1ccc(C(F)(F)F)cn1)N1C[C@H](C)N(c2nc(=O)n(C)c3c2nc(CC#N)n3C)C[C@H]1C (single isomer, unassigned) [Compound A148b]
> 150	> 10	CCn1c(CC#N)nc2c(N3C[C@@H](C)N(C(C)c4ccc(N5CCOCC5)cc4)C[C@@H]3C)nc(=O)n(C)c21 (stereo partly drawn) [Compound A143, 2-(6-((2S,5R)-2,5-dimethyl-4-(1-(4-morpholinophenyl)ethyl)piperazin-1-yl)-9-ethyl-3-methyl-2-oxo-3,9-dihydro-2H-purin-8-yl)acetonitrile]
1.46	0.133	Cc1cccc(C(C)N2C[C@H](C)N(c3c(F)c(=O)n(C)c4c3nc(CC#N)n4C)C[C@H]2C)c1C(F)(F)F (single isomer, unassigned) [Compound A17a]
> 150	2.07	CCn1c(CC#N)nc2c(N3C[C@@H](C)N(C(C)c4cc(F)c5c(n4)OC(C)(C)CO5)C[C@@H]3C)nc(=O)n(C)c21 (single isomer, unassigned) [Compound A163b]
> 150	0.949	CCn1c(CC#N)nc2c(N3C[C@@H](C)N(C(C)c4ccc(C)c(C)n4)C[C@@H]3C)nc(=O)n(C)c21 (stereo partly drawn) [Compound A138, 2-(6-((2S,5R)-4-(1-(5,6-dimethylpyridin-2-yl)ethyl)-2,5-dimethylpiperazin-1-yl)-9-ethyl-3-methyl-2-oxo-3,9-dihydro-2H-purin-8-yl)acetonitrile]
13.3	0.02	CC(c1ccc2c(c1)OCCO2)N1C[C@H](C)N(c2nc(=O)n(C)c3c2nc(CC#N)n3C)C[C@H]1C (single isomer, unassigned) [Compound A58a]
65.8	0.107	CCn1c(CC#N)nc2c(N3C[C@@H](C)N(C(C)c4cc(Cl)c5c(c4)OC(C)(C)O5)C[C@@H]3C)nc(=O)n(C)c21 (stereo partly drawn) [Compound A171, 2-(6-((2S,5R)-4-(1-(7-chloro-2,2-dimethylbenzo[d][1,3]dioxol-5-yl)ethyl)-2,5-dimethylpiperazin-1-yl)-9-ethyl-3-methyl-2-oxo-3,9-dihydro-2H-purin-8-yl)acetonitrile]
> 150	0.35	CCn1c(CC#N)nc2c(N3C[C@@H](C)N(C(C)c4ccc(C)cc4C(F)(F)F)C[C@@H]3C)nc(=O)n(C)c21 (stereo partly drawn) [Compound A116, 2-(6-((2S,5R)-2,5-dimethyl-4-(1-(4-methyl-2-(trifluoromethyl)phenyl)ethyl)piperazin-1-yl)-9-ethyl-3-methyl-2-oxo-3,9-dihydro-2H-purin-8-yl)acetonitrile]
> 150	0.111	CCn1c(CC#N)nc2c(N3C[C@@H](C)N(C(C)c4cccc(C(C)(C)CO)c4)C[C@@H]3C)nc(=O)n(C)c21 (stereo partly drawn) [Compound A133, 2-(9-ethyl-6-((2S,5R)-4-(1-(3-(1-hydroxy-2-methylpropan-2-yl)phenyl)ethyl)-2,5-dimethylpiperazin-1-yl)-3-methyl-2-oxo-3,9-dihydro-2H-purin-8-yl)acetonitrile]
13.6	0.332	CC[C@@H]1CN(c2nc(=O)n(C)c3c2nc(CC#N)n3C)[C@@H](C)CN1C(C)c1ccc2ncc(C)nc2c1 (single isomer, unassigned) [Compound A50b]
